{
  "source": "patent US11827703B2",
  "about": "“Compositions and methods related to anti-CD19 antibody drug conjugates” (LegoChem Biosciences, Inc., priority 2018, dated 2023)",
  "key": {"WSU-DLCL2": {"test_system": "WSU-DLCL2", "assay": "Anti-proliferation assay (CellTiter-Glo), WSU-DLCL2", "type": "cell-based", "conditions": "WSU-DLCL2, 96 hour treatment", "procedure": "(§1) Commercially available 6 B cell lymphoma cancer cell lines DOHH-2 (DSMZ, #ACC 47), NALM-6 (DSMZ, #ACC 58), Ramos (ECACC, #85030802), SU-DHL-6 (ATCC, #CRL-2959), WSU-DLCL2 (DSMZ, #ACC 575) and WSU-NHL (DSMZ, #ACC 58) were used. SG2057 was used as the drug, free toxin. Each of the cancer cell lines was seeded in a 96-well plate at 2000 to 10000 per well for the 96 hour treatment group, incubated for 2 hours, and then treated with drug and ADC at a concentration of from 0.00025 to 100 nM (5-fold times serial dilutions). After 96 hours, the number of living cells was quantified using CellTiter-Glo Luminescent cell viability assay (Promega-G7573). Inhibition rate (IR) of the drug and ADC were determined by the following formula: IR (%)=(1−(RLU compound−RLU blank)/(RLU control−RLU blank))*100%. The inhibitions of different dose of samples were calculated in Excel file, and then were used to plot inhibition curve and evaluate related parameters, such as Bottom (%), Top (%) and Relative IC50. The IC50 for each experiment and treatment was calculated (See table below)."}, "DOHH2": {"test_system": "DOHH2", "assay": "Anti-proliferation assay (CellTiter-Glo), DOHH2", "type": "cell-based", "conditions": "DOHH2, 96 hour treatment", "procedure": "as §1"}, "WSU-NHL": {"test_system": "WSU-NHL", "assay": "Anti-proliferation assay (CellTiter-Glo), WSU-NHL", "type": "cell-based", "conditions": "96 hour treatment", "procedure": "as §1"}, "Ramos": {"test_system": "Ramos", "assay": "Anti-proliferation assay (CellTiter-Glo), Ramos", "type": "cell-based, human", "conditions": "96 hour treatment", "procedure": "as §1"}, "SU-DHL-6": {"test_system": "SU-DHL-6", "assay": "Anti-proliferation assay (CellTiter-Glo), SU-DHL-6", "type": "cell-based, human", "conditions": "SU-DHL-6, 96 hour treatment", "procedure": "as §1"}, "NALM6": {"test_system": "NALM6", "assay": "Anti-proliferation assay (CellTiter-Glo), NALM6", "type": "cell-based, human", "conditions": "NALM6, 96 hour treatment", "procedure": "as §1"}, "[1]": {"test_system": "Ramos Burkitt's lymphoma cells", "assay": "Ramos non-Hodgkin lymphoma xenograft model", "conditions": "Ramos s.c. xenograft, i.v. treatment", "experimental": "Anti-tumor activity of anti-CD19 (9G8) Antibody Drug Conjugate was evaluated in immunodeficient CB-17 scid mice subcutaneously engrafted with Ramos Burkitt's lymphoma cells.\nCB17-SCID mice (Charles River), aged 7 weeks, were implanted subcutaneously (s.c.) in the right flank with 5×10^6 Ramos cells (obtained from ATCC). Tumor volumes (calculated using the formula TV=(0.5×[length×width^2]) were measured by digital caliper 3 times a week and mice were recruited for treatment when tumor volumes reached 200-250 mm^3. Mice were assigned to different groups (see table below) in order to obtain homogeneous mean tumor volumes between cohorts (n=7-8 mice per group. Mean tumor volume: hIgG1 control 1 mg/kg, 1 inj.: 243 mm^3±26; anti-CD19 CaaX 1 mg/kg, 1 inj.: 233 mm^3±18; hIgG1 ADC 1 mg/kg, 1 inj.: 224 mm^3±20; anti CD19 ADC 0.33 mg/kg, 1 inj.: 242 mm^3±28; anti CD19 ADC 0.66 mg/kg, 1 inj.: 234 mm^3±23; anti CD19 ADC 1 mg/kg, 1 inj.: 234 mm^3±31; anti CD19 ADC 0.33 mg/kg 1 inj./week during 3 weeks: 251 mm^3±25; rituximab 6 mg/kg, 1 inj.: 242 mm^3±31). Single dose or multiple dose (only for cohort anti-CD19 ADC 0.33 mg/kg 1×/week, 3 weeks) treatments were injected i.v. in the tail vein. Mice were then monitored for body weight 3 times a week and for tumor growth 3 times a week until the endpoint of the experiment (tumor volume=1500 mm^3)."}, "[2]": {"test_system": "human B lymphocyte cell lines: Raji, Ramos, Nalm6, Su-DHL6, Su-DHL4, and Mec2", "assay": "FACS binding to human B lymphocyte cell lines", "conditions": "comparison of cell lines", "procedure": "The ability of various anti-CD19 antibodies of the disclosure to bind various human B lymphocyte cell lines was evaluated. In particular, the human IgG1 5F5, 7F11, 9G8, F6, 7F1, and 10D8 anti-CD19 antibodies were evaluated for their abilities to bind (i) six human B lymphocyte cell lines: Raji, Ramos, Nalm6, Su-DHL6, Su-DHL4, and Mec2, (ii) a CD19 silenced B cell line: Raji siRNA; and a negative cell line (Jurkat). All incubations were prepared in FACS buffer (PBS, BSA 2%) at 4° C. Fc receptors on B cells were blocked with 10% mouse serum. Four doses of hIgG1 were tested: 10, 1, 0.1 and 0.01 μg/mL. Cell surface bound hIgG1 were detected with a mouse anti-human IgG Fc-PE mAb."}, "cynomolgus CD19": {"test_system": "cynomolgus CD19", "assay": "FACS binding to CHO cell line transfected with cynomolgus CD19", "design": "species or system cynomolgus monkey", "conditions": "transfected CHO cynoCD19 cells, 10 to 0.01 μg/mL", "procedure": "The ability of the anti-CD19 antibodies to bind human and/or cynomolgus monkey CD19 was evaluated.\nIn particular, the human IgG1 5F5, 7F11, 9G8, F6, 7F1, and 10D8 anti-CD19 antibodies were evaluated for their abilities to bind a CHO cell line transfected with cynomolgus CD19 and a negative control cell line (CHO). All incubations were prepared in FACS buffer (PBS, BSA 2%) at 4° C. Fc receptors on B cells were blocked with 10% mouse serum. Four doses of hIgG1 were tested: 10, 1, 0.1 and 0.01 μg/mL."}},
  "data": [
    {"molecule": "C=C1C[C@H]2C=Nc3cc(OCCCCCOc4cc5c(cc4OC)C(=O)N4CC(=C)C[C@H]4C=N5)c(OC)cc3C(=O)N2C1", "note": "[Free dPBD (SG2057), SG2057]", "values": [
      {"measurement": "IC50", "setting": "WSU-DLCL2", "result": 4, "unit": "pM"},
      {"measurement": "IC50", "setting": "DOHH2", "result": 5.4, "unit": "pM"},
      {"measurement": "IC50", "setting": "WSU-NHL", "result": 13, "unit": "pM"},
      {"measurement": "IC50", "setting": "Ramos", "result": 150, "unit": "pM"},
      {"measurement": "IC50", "setting": "SU-DHL-6", "result": 50, "unit": "pM"},
      {"measurement": "IC50", "setting": "NALM6", "result": 3.5, "unit": "pM"}
    ]},
    {"molecule": "rituximab", "values": [
      {"measurement": "mice reaching the tumor size endpoint (tumor volume=1500 mm^3)", "setting": "[1]", "result": "four of seven mice reached the endpoint"},
      {"measurement": "survival to day 70", "setting": "[1]; rituximab 6 mg/kg single", "result": "three survived to day 70"}
    ]},
    {"molecule": "10D8: anti-CD19 antibody, VH SEQ ID NO: 20, VL SEQ ID NO: 22 (antibody, V domains shown) VH: QVQLVQSGAEVKKPGSSVKVSCKASGGTFSSYAISWVRQAPGQGLEWMGGIIPIFGTANYAQKFQGRVTITADESTSTAYMELSSLRSEDTAVYYCARDRGYDYVWGSYRYGAFDIWGQGTLVTVSS VL: QSALTQPASVSGSPGQSITISCTGTSSDVGGYNYVSWYQQHPGKAPKLMIYEVSNRPSGVSNRFSGSKSGNTASLTISGLQAEDEADYYCSSYDVWVPHMVFGGGTKLTVL", "values": [
      {"measurement": "binding profile Nalm6 versus Raji cells", "setting": "[2]", "result": "bind better to Nalm6 than to Raji cells"},
      {"measurement": "cross-reactivity with cynomolgus CD19", "setting": "cynomolgus CD19", "result": "did not bind"}
    ]},
    {"molecule": "F6: anti-CD19 antibody, VH SEQ ID NO: 12, VL SEQ ID NO: 14 (antibody, V domains shown) VH: EVQLVQSGAEVKKPGESLKISCKGSGYSFTSYWIGWVRQMPGKGLEWMGIIYPGDSDTRYSPSFQGQVTISADKSISTAYLQWSSLKASDTAMYYCARVWYYDFWSGADAFDIWGQGTLVTVSS VL: EIVMTQSPATLSVSPGERATLSCRASQSVSSNLAWYQQKPGQAPRLLIYGASTRATGIPARFSGSGSGTEFTLTISSLQSEDFAVYYCQQGSLEAPQTFGQGTKVEIK", "values": [
      {"measurement": "cross-reactivity with cynomolgus CD19", "setting": "cynomolgus CD19", "result": "slightly cross-reactive"}
    ]},
    {"molecule": "7F1: anti-CD19 antibody, VH SEQ ID NO: 16, VL SEQ ID NO: 18 (antibody, V domains shown) VH: EVQLVQSGAEVKKPGESLKISCKGSGYSFTSYWIGWVRQMPGKGLEWMGIIYPGDSDTRYSPSFQGQVTISADKSISTAYLQWSSLKASDTAMYYCARGDYWTGFAYWGQGTLVTVSS VL: QSVLTQPPSVSAAPGQKVTISCSGSSSNIGNNYVSWYQQLPGTAPKLLIYDNNKRPSGIPDRFSGSKSGTSATLGITGLQTGDEADYYCGTWDLGWNSVFGGGTKLTVL", "values": [
      {"measurement": "binding profile Nalm6 versus Raji cells", "setting": "[2]", "result": "bind better to Nalm6 than to Raji cells"},
      {"measurement": "cross-reactivity with cynomolgus CD19", "setting": "cynomolgus CD19", "result": "did not bind"}
    ]},
    {"molecule": "9G8: anti-CD19 antibody, VH SEQ ID NO: 6, VL SEQ ID NO: 10 (antibody, V domains shown) VH: EVQLVQSGAEVKKPGESLKISCKGSGYSFTSYWIGWVRQMPGKGLEWMGIIYPGDSDTRYSPSFQGQVTISADKSISTAYLQWSSLKASDTAMYYCARGVSGIYNLHGFDIWGQGTLVTVSS VL: DIQMTQSPSSLSASVGDRVTITCRASQSISSYLNWYQQKPGKAPKLLIYAASSLQSGVPSRFSGSGSGTDFTLTISSLQPEDFATYYCQQGRFGSPFTFGQGTKVEIK", "values": [
      {"measurement": "cross-reactivity with cynomolgus CD19", "setting": "cynomolgus CD19", "result": "clearly cross-reactive"}
    ]},
    {"molecule": "7F11: anti-CD19 antibody, VH SEQ ID NO: 6, VL SEQ ID NO: 8 (antibody, V domains shown) VH: EVQLVQSGAEVKKPGESLKISCKGSGYSFTSYWIGWVRQMPGKGLEWMGIIYPGDSDTRYSPSFQGQVTISADKSISTAYLQWSSLKASDTAMYYCARGVSGIYNLHGFDIWGQGTLVTVSS VL: DIQMTQSPSSLSASVGDRVTITCRASQSISSYLNWYQQKPGKAPKLLIYAASSLQSGVPSRFSGSGSGTDFTLTISSLQPEDFATYYCQQGMWDNPFTFGQGTKVEIK", "values": [
      {"measurement": "cross-reactivity with cynomolgus CD19", "setting": "cynomolgus CD19", "result": "slightly cross-reactive"}
    ]},
    {"molecule": "5F5: anti-CD19 antibody, VH SEQ ID NO: 2, VL SEQ ID NO: 4 (antibody, V domains shown) VH: EVQLVQSGAEVKKPGESLKISCKGSGYSFTSYWIGWVRQMPGKGLEWMGIIYPGDSDTRYSPSFQGQVTISADKSISTAYLQWSSLKASDTAMYYCARGISGIYNLHGFDIWGQGTLVTVSS VL: DIQMTQSPSSLSASVGDRVTITCRASQSISSYLNWYQQKPGKAPKLLIYAASSLQSGVPSRFSGSGSGTDFTLTISSLQPEDFATYYCQQASLDSPLTFGQGTKVEIK", "values": [
      {"measurement": "cross-reactivity with cynomolgus CD19", "setting": "cynomolgus CD19", "result": "slightly cross-reactive"}
    ]}
  ]
}
